Data taken from PubChem BioAssay (NCI).
“And” between values parts separate entries of the source, which are not always exact repeats. Identical values can stand only once.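 A five-concentration, 48-hour dose response in 96-well plates underlies each endpoint, interpolated linearly between surrounding concentrations. GI50: concentration for 50% inhibition of growth. The concentration for full growth arrest is given as TGI.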

Columns and labels:
Assay in all cases: NCI anticancer screen, dose series, 48 h
A498 renal = tested on: A498 renal
BT-549 breast = tested on: BT-549 breast
K-562 leukemia = tested on: K-562 leukemia
MOLT-4 leukemia = tested on: MOLT-4 leukemia
NCI-H522 lung = tested on: NCI-H522 lung
RXF 393 renal = tested on: RXF 393 renal
SK-MEL-2 melanoma = tested on: SK-MEL-2 melanoma

| SMILES | GI50 (A498 renal) | TGI (A498 renal) | GI50 (BT-549 breast) | TGI (BT-549 breast) | GI50 (K-562 leukemia) | TGI (K-562 leukemia) | GI50 (MOLT-4 leukemia) | TGI (MOLT-4 leukemia) | GI50 (NCI-H522 lung) | TGI (NCI-H522 lung) | GI50 (RXF 393 renal) | TGI (RXF 393 renal) | GI50 (SK-MEL-2 melanoma) | TGI (SK-MEL-2 melanoma) |
| --- | --- | --- | --- | --- | --- | --- | --- | --- | --- | --- | --- | --- | --- | --- |
| CC[C@]12C=CCN3CC[C@@]4(c5ccc(OC)cc5N(C)[C@H]4[C@@](O)(C(=O)OC)[C@@H]1OC(=O)CCC[P+](c1ccccc1)(c1ccccc1)c1ccccc1)[C@@H]32 | 1.71 µM and 1.97 µM | 4.87 µM and 5.7 µM | 0.284 µM and 0.234 µM | 1.86 µM and 1.6 µM | 0.561 µM and 0.421 µM | 8.23 µM and 5.98 µM | 1.04 µM and 1.1 µM | 4.75 µM and 3.68 µM | 0.247 µM and 0.342 µM | 5.37 µM and 1.41 µM | 0.736 µM and 1.53 µM | 2.94 µM and 4.34 µM | 0.441 µM and 0.356 µM | 1.52 µM and 1.27 µM |
| CCCCCCCCCC/C=C/CC(=O)SCCNC(=O)CCNC(=O)[C@@H](O)C(C)(C)COP(=O)(O)OP(=O)(O)OCC1OC(n2cnc3c(N)ncnc32)C(O)C1OP(=O)(O)O (stereo partly drawn) | – | > 10 µM | – | – | – | > 10 µM | – | > 10 µM | – | – | – | > 10 µM | – | – |
| C=C(C=O)C1CCC2(C(=O)O)CCC3(C)C(CCC4C5(C)CCC(O)C(C)(C)C5CCC43C)C12 (stereo not drawn) | 4.77 µM | 14.4 µM | 1.68 µM | 6.67 µM | 2.72 µM | > 100 µM | 3.79 µM | > 100 µM | 1.96 µM | 5 µM | 1.34 µM | 2.99 µM | 3.82 µM | 12 µM |
| O=C1NC(=Nc2ccccc2)S/C1=C\c1ccc2ncccc2c1 | – | > 18.4 µM | > 25 µM | > 25 µM | 0.846 µM | > 25 µM | > 25 µM | > 25 µM | > 12.3 µM | > 25 µM | > 25 µM | > 25 µM | > 17.9 µM | > 25 µM |
| COc1ccc2c(c1)CCC1C2CC[C@@]2(C)C1CC1=CC(COC(C)=O)C3C(=O)c4ccccc4C(=O)C3C12 (stereo partly drawn) | > 100 µM | > 100 µM | > 100 µM | > 100 µM | 64.1 µM | > 100 µM | > 100 µM | > 100 µM | > 100 µM | > 100 µM | 59.8 µM | > 100 µM | > 100 µM | > 100 µM |
| CCN1CCN(c2ccc(Nc3cc(N(C)C(=O)Nc4c(Cl)c(OC)cc(OC)c4Cl)ncn3)cc2)CC1 | < 0.0113 µM | 0.062 µM | 1.04 µM | 21.1 µM | 2.09 µM | 5.5 µM | 1.87 µM | 5.8 µM | 5.21 µM | 10.9 µM | 1.13 µM | 2.72 µM | 7.12 µM | 22.7 µM |
| CNCCNc1c2c(c(NCCNC)c3c(CN(C)C)c[nH]c13)C(=O)c1ccccc1C2=O | 1.41 µM | 6.27 µM | 6.04 µM | 14.4 µM | 1.81 µM | > 100 µM | 0.434 µM | – | 0.514 µM | 3.59 µM | 2.5 µM | 11 µM | 2.94 µM | 16.4 µM |
| CC(=O)OC1Oc2ccccc2-c2oc(=O)c(-c3cc(=O)oc4cc(O)ccc34)cc21 (stereo not drawn) | 13.3 µM | 40.4 µM | 15.3 µM | 41.4 µM | 9.45 µM | > 100 µM | 4.33 µM | 20.1 µM | 16.9 µM | 43 µM | 4.5 µM | 20.6 µM | 19.2 µM | 89 µM |
| Cc1c2cccnc2c(C)c2c1c1cc(CO)ccc1n2C | 0.104 µM | 0.243 µM | 3.42 µM | 20.1 µM | 1.66 µM | 20.6 µM | 1.64 µM | 22.5 µM | 1.98 µM | 6.53 µM | 1.93 µM | 5.5 µM | 2.87 µM | 8.47 µM |
| COc1ccc(N(C)c2ncnc3occ(C)c23)cc1 | < 0.01 µM | < 0.01 µM | < 0.0244 µM | > 62.4 µM | < 0.01 µM | – | < 0.01 µM | 0.0481 µM | < 0.01 µM | < 0.01 µM | – | – | < 0.01 µM | 58.7 µM |
| Cc1ccc(C(SCC(N)C(=O)O)(c2ccccc2)c2ccc(C)cc2)cc1 (stereo not drawn) | 0.225 µM | 4.5 µM | 0.247 µM | 21.9 µM | 0.266 µM | > 35.2 µM | 2.7 µM | > 48.2 µM | 0.132 µM | 2.58 µM | 0.0957 µM | 3.52 µM | 0.219 µM | 3.88 µM |
| C/C1=C\CC[C@@]2(C)O[C@@H]2[C@H]2OC(=O)[C@@H](CN(C)C)[C@@H]2CC1 | 25.7 µM | 44.9 µM | 4.8 µM | 26.9 µM | 2.54 µM | 59.1 µM | 2.89 µM | 9.82 µM | 2.65 µM | 7.06 µM | 16.1 µM | 50.5 µM | 14.2 µM | 34.8 µM |
